US9206188B2, “Substituted pyrrolo[2,3-b]pyridines as ITK and JAK inhibitors” (Arrien Pharmaceuticals LLC, priority 2013, dated 2015)
Read-outs that look alike come from different tables or passages of the source.

Tests used:
[1] = tested on: IL-2 release from CD4+ T cells; test: IL-2 release from CD4+ T cells using HTRF; type: cell-based; settings: read-out: inhibition of IL-2 release from CD4+ T cells
[2] = tested on: Anti-CD3e antibody induced CD4+ T cell cytokine-IL-2, IL-4 and IFN-γ production; test: Anti-CD3e antibody induced CD4+ T cell cytokine production in male BALB/c mice; type: in vivo; settings: compared to Positive control; 1.5 hrs post-antibody treatment
Experimental: 1H-pyrrolo[2,3-b]pyridine series of compounds Mice IL-2, IL-4 and IFN-g: 60 mg/Kg is highly efficacious. There is a significant increase in serum IL-2, IL-4 and IFN-gamma (P<0.001) of Positive Control animals compared to negative control animals.

JAK3 = JAK3 (Homo sapiens (Human), UniProt P52333); test: JAK3 kinase assay (radiometric filter binding, 10 μM ATP); type: biochemical
ITK = ITK (Homo sapiens (Human), UniProt Q08881); test: ITK kinase assay (radiometric filter binding, 10 μM ATP); type: biochemical
[3] = Pharmacokinetics in male Sprague Dawley rats; type: in vivo; settings: rat, plasma
Experimental: The bio-availability and pharmacokinetics of some compounds of the present invention were examined in male Sprague Dawley rats. A total of 6 male rats were used in the study. The study was performed using parallel design (n=3) with serial sampling.
Dose formulations were prepared on the day of doing. Blood samples were collected at 0.083 (only IV), 0.25, 0.5, 1, 2, 4, 8 and 24 h post-dose. At each time point, approximately 0.2 mL of blood was withdrawn from each cannulated rat through jugular vein and transferred to a pre-labeled microfuge tube containing 20 μL of 200 mm K2EDTA permL of blood. Following collection of blood sample, equal volume of heparinized saline was flushed into jugular vein of rat. The blood samples were centrifuged at 5000 g for 5 min at 4±2° C. The plasma was separated within 30 min of scheduled time and stored below −60° C. until bio-analysis. […] The pharmacokinetic parameters for select EXAMPLES were calculated using the non-compartmental analysis tool of validated WinNonlin® software (Version 5.2).

T cell receptor = test: SelectScreen cell-based pathway profiling, T cell receptor, NFAT-bla Jurkat, anti-CD3:CD28 stimulated; settings: NFAT-bla Jurkat cells, anti-CD3:CD28 stim
[4] = tested on: Established Type II Collagen Arthritis; test: 11 day mouse established type II collagen arthritis, PO, BID; type: in vivo, DBA/1OlaHsd Mouse
Source text: Effects of 1H-pyrrolo[2,3-b]pyridine Series of Compounds Administered PO, BID in 11 Day DBA/1OlaHsd Mouse Established Type II Collagen Arthritis

JAK/STAT [5] = test: SelectScreen cell-based pathway profiling, JAK/STAT, SIE-bla HEK 293T, IFN-gamma stimulated; settings: SIE-bla HEK 293T cells, IFN-gamma stim
IL-4/STAT6 = test: SelectScreen cell-based pathway profiling, IL-4/STAT6, STAT6-bla RA1, IL-4 stimulated; settings: STAT6-bla RA1 cells, IL-4 stim, 10-point titration
JAK/STAT [6] = test: SelectScreen cell-based pathway profiling, JAK/STAT, SIE-bla HEK 293T, IL-6 stimulated; settings: SIE-bla HEK 293T cells, IL-6 stim
JAK2/STAT5 = test: SelectScreen cell-based pathway profiling, JAK2/STAT5, irf1-bla TF1, EPO stimulated; settings: irf1-bla TF1 cells, EPO stim
[7] = IV 5 mg/kg, solution, male Sprague Dawley rats, mean±SD, n=3
[8] = PO 20 mg/kg, solution, male Sprague Dawley rats, mean±SD, n=3
[9] = 10-dose IC50 mode, 10 μM ATP, read-out: JAK3 kinase inhibition
[10] = 10-dose IC50 mode, 10 μM ATP, read-out: ITK kinase inhibition

Chain of ITK (Q08881 whole entry): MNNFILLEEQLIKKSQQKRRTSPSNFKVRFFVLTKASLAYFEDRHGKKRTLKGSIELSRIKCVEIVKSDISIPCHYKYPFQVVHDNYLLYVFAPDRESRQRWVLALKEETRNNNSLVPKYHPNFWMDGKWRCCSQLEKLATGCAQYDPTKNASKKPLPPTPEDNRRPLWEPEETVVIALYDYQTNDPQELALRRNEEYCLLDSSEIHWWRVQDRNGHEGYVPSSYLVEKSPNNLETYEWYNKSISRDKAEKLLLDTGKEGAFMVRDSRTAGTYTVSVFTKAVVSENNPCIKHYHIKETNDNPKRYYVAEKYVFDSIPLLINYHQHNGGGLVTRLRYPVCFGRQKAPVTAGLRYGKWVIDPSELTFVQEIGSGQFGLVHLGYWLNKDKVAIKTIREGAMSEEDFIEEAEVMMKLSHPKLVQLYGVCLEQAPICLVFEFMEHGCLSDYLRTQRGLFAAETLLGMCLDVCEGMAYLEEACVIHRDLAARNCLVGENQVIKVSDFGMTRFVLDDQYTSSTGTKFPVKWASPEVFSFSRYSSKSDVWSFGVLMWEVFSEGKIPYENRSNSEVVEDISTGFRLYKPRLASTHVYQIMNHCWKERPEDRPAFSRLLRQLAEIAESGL
Chain of JAK3 (P52333 whole entry): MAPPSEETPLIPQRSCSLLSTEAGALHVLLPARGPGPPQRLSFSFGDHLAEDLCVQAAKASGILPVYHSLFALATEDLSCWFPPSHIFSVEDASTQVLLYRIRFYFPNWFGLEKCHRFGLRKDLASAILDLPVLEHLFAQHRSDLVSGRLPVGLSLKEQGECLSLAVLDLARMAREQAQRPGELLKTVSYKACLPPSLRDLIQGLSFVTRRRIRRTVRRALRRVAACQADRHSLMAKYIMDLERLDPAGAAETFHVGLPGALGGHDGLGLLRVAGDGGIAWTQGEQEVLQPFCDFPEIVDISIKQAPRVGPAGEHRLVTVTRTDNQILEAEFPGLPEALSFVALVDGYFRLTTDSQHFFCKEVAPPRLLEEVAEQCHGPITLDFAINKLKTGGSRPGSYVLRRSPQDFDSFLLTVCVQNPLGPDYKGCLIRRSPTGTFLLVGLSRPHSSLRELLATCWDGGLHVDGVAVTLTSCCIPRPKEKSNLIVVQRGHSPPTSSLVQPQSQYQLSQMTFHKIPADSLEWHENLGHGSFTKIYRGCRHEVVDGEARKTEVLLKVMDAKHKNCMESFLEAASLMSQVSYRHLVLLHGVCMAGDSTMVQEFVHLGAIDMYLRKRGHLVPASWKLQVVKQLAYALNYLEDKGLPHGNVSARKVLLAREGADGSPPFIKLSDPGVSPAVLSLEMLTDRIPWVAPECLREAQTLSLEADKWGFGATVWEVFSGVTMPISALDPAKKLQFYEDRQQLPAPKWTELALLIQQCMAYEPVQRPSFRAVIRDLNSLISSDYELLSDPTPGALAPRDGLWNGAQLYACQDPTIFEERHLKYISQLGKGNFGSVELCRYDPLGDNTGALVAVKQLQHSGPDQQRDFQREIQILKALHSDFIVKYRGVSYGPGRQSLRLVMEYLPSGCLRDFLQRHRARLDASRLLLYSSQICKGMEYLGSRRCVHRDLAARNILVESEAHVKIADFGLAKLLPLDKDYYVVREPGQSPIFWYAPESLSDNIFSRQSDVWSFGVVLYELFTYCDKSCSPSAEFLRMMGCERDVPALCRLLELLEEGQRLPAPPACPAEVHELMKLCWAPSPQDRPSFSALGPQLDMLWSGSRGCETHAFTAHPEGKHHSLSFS

For `COc1cc(C)c(Sc2cnc(NC(=O)c3ccc(CNC(C)C(C)(C)C)cc3)s2)cc1C(=O)N1CCN(C(C)=O)CC1` (stereo not drawn) [BMS509744], which IC50 [1] is on record?
Its IC50 is 350 nM.

What does the source list for `C[C@@H]1C[C@H]2[C@@H]3CCC4=CC(=O)C=C[C@]4(C)[C@@]3(F)[C@@H](O)C[C@]2(C)[C@@]1(O)C(=O)CO` [Dexamethasone]?
serum IFN-gamma [2]: significant decrease; serum IL-2 [2]: significant decrease; serum IL-4 [2]: significant decrease

Which IC50 (JAK3; read-out: biochemical IC50 against JAK3) does the source give for `C=CC(=O)Nc1cccc(-c2cnc3[nH]cc(Cl)c3c2)c1` [Example 7, N-(3-(3-chloro-1H-pyrrolo[2,3-b]pyridin-5-yl)phenyl)acrylamide] here?
The IC50 was 100 to 1000 nM.

What about the IC50 (ITK; read-out: biochemical IC50 against ITK) of the same molecule?
The IC50 was 100 to 1000 nM.

What about the bioavailability ([3]; male, Sprague Dawley, PO 20 mg/kg vs IV 5 mg/kg, AUCinf and nominal doses used, read-out: F (bioavailability)) of the same molecule?
Its bioavailability is 15%.

And the AUC(0-inf) [3, 7]?
The AUC(0-inf) was 2620 ± 647 ng·h/mL.

What about the AUC(0-t) [3, 7] of the same molecule?
Its AUC(0-t) is 2600 ng·h/mL.

What about the clearance [3, 7] of the same molecule?
Its clearance is 33.4 ± 9.57 mL/min/kg.

And the half-life [3, 7]?
The half-life was 32.4 ± 3 min.

And the Cmax ([3]; IV 5 mg/kg, solution, male Sprague Dawley rats, mean±SD, n=3, read-out: Cmax (back extrapolated concentration at time zero))?
The Cmax was 3850 ng/mL.

And the Vd ([3]; IV 5 mg/kg, solution, male Sprague Dawley rats, mean±SD, n=3, read-out: Vss)?
The Vd was 1.61 ± 0.28 L/kg.

And the AUC(0-inf) [3, 8]?
The AUC(0-inf) was 1600 ± 183 ng·h/mL.

What about the AUC(0-t) [3, 8] of the same molecule?
Its AUC(0-t) is 1580 ng·h/mL.

What about the Cmax ([3]; PO 20 mg/kg, solution, male Sprague Dawley rats, mean±SD, n=3, read-out: Cmax) of the same molecule?
Its Cmax is 853 ng/mL.

And the Tmax ([3]; PO 20 mg/kg, solution, male Sprague Dawley rats, median (range), n=3)?
Its Tmax is 15 min.

For `Cc1cccc(-c2c[nH]c3ncc(-c4cccc(NC(=O)/C=C/CN(C)C)c4)cc23)c1F` [Example 145, (E)-4-(dimethylamino)-N-(3-(3-(2-fluoro-3-methylphenyl)-1H-pyrrolo[2,3-b]pyridin-5-yl)phenyl)but-2-enamide], which IC50 (JAK3; [9]) is on record?
The IC50 was over 100 nM.

What about the IC50 (ITK; [10]) of the same molecule?
Its IC50 is over 100 nM.

Which results are given for `Cc1c[nH]c2ncc(-c3cccc(NC(=O)/C=C/CN(C)C)c3)cc12` [Example 152, (E)-4-(dimethylamino)-N-(3-(3-methyl-1H-pyrrolo[2,3-b]pyridin-5-yl)phenyl)but-2-enamide]?
IC50 (JAK3; [9]): > 100 nM; IC50 (ITK; [10]): > 100 nM

For `CN(C)C/C=C/C(=O)Nc1cccc(-c2cnc3[nH]cc(Cl)c3c2)c1` [Example 153, (E)-N-(3-(3-chloro-1H-pyrrolo[2,3-b]pyridin-5-yl)phenyl)-4-(dimethylamino)but-2-enamide], which IC50 (JAK3; [9]) is on record?
The IC50 was under 100 nM.

And the IC50 (ITK; [10])?
Its IC50 is over 100 nM.

With `COc1c(F)cc(F)cc1-c1c[nH]c2ncc(-c3cccc(NC(=O)/C(C)=C/C(C)(C)C)c3)cc12` [Example 158, (E)-N-(3-(3-(3,5-difluoro-2-methoxyphenyl)-1H-pyrrolo[2,3-b]pyridin-5-yl)phenyl)-2,4,4-trimethylpent-2-enamide] as the molecule, how does the IC50 (JAK3; [9]) read?
Its IC50 is under 100 nM.

And the IC50 (ITK; [10])?
Its IC50 is under 100 nM.

For `C=CC(=O)Nc1cc(F)cc(-c2cnc3[nH]cc(-c4cc(F)cc(F)c4OC)c3c2)c1C` [Example 168, N-(3-(3-(3,5-difluoro-2-methoxyphenyl)-1H-pyrrolo[2,3-b]pyridin-5-yl)-5-fluoro-2-methylphenyl)acrylamide], which IC50 (JAK3; [9]) is on record?
The IC50 was under 100 nM.

And the IC50 (ITK; [10])?
The IC50 was under 100 nM.

For `COc1c(F)cc(F)cc1-c1c[nH]c2ncc(-c3cc(F)cc(NC(=O)/C=C/CN(C)C)c3C)cc12` [Example 169, (E)-N-(3-(3-(3,5-difluoro-2-methoxyphenyl)-1H-pyrrolo[2,3-b]pyridin-5-yl)-5-fluoro-2-methylphenyl)-4-(dimethylamino)but-2-enamide], which IC50 (JAK3; [9]) is on record?
The IC50 was under 100 nM.

And the IC50 (ITK; [10])?
The IC50 was under 100 nM.

For `COc1c(F)cc(F)cc1-c1c[nH]c2ncc(-c3cc(F)cc(NC(=O)/C(C)=C/C(C)(C)C)c3C)cc12` [Example 170, (E)-N-(3-(3-(3,5-difluoro-2-methoxyphenyl)-1H-pyrrolo[2,3-b]pyridin-5-yl)-5-fluoro-2-methylphenyl)-2,4,4-trimethylpent-2-enamide], which IC50 (JAK3; [9]) is on record?
The IC50 was under 100 nM.

What about the IC50 (ITK; [10]) of the same molecule?
The IC50 was under 100 nM.

For `COc1cc(F)c(C)cc1-c1c[nH]c2ncc(-c3cc(F)cc(NC(=O)/C=C/CN(C)C)c3C)cc12` [Example 172, (E)-4-(dimethylamino)-N-(5-fluoro-3-(3-(4-fluoro-2-methoxy-5-methylphenyl)-1H-pyrrolo[2,3-b]pyridin-5-yl)-2-methylphenyl)but-2-enamide], which IC50 (JAK3; [9]) is on record?
The IC50 was under 100 nM.

What about the IC50 (ITK; [10]) of the same molecule?
The IC50 was under 100 nM.

For `COc1cc(F)c(C)cc1-c1c[nH]c2ncc(-c3cc(F)cc(NC(=O)/C(C)=C/C(C)(C)C)c3C)cc12` [Example 173, (E)-N-(5-fluoro-3-(3-(4-fluoro-2-methoxy-5-methylphenyl)-1H-pyrrolo[2,3-b]pyridin-5-yl)-2-methylphenyl)-2,4,4-trimethylpent-2-enamide], which IC50 (JAK3; [9]) is on record?
The IC50 was under 100 nM.

What about the IC50 (ITK; [10]) of the same molecule?
The IC50 was under 100 nM.

Which IC50 (T cell receptor) does the source give for `Cn1cc(C2=C(c3cn(CCCSC(=N)N)c4ccccc34)C(=O)NC2=O)c2ccccc21` [Ro-31-8220] here?
Its IC50 is 615 nM.

For `C[C@@H]1CCN(C(=O)CC#N)C[C@@H]1N(C)c1ncnc2[nH]ccc12` [Tofacitinib], which “serum IFN-gamma” value [2] is on record?
Its value is “significant decrease”.

What about the “serum IL-2” value [2] of the same molecule?
The value was “significant decrease”.

And the “serum IL-4” value [2]?
Its value is “significant decrease”.

What about the “effectiveness, suppression of the inflammatory response” value ([4]; collagen-induced arthritis in mice) of the same molecule?
The value was 97%.

And the body weight ([4]; series 100 mg/kg group, Tofacitinib 60 mg/Kg)?
The body weight was “body weight change from day 1”.

And the fever ([4]; treated mice, in vivo studies)?
Its fever is “had fever”.

For “(E)-N-(3-(3-methyl-1H- pyrazolo[3,4-b]pyridin-5- yl)phenyl)acrylamide [Example 51]”, which IC50 (JAK3; read-out: JAK3 kinase inhibition) is on record?
The IC50 was over 100 nM.

What about the IC50 (ITK; read-out: ITK kinase inhibition) of the same molecule?
The IC50 was over 100 nM.

Which results are given for JAK Inhibitor I?
IC50 (JAK/STAT [5]): 83.5 nM; IC50 (IL-4/STAT6): 14.5 nM; IC50 (JAK/STAT [6]): 22 nM; IC50 (JAK2/STAT5): 6.92 nM
